In US6538033B2, “Nitric oxide donor compounds” (Huntington Medical Research Institutes, priority 2000, dated 2003):

How the values were obtained:
washed platelets = assay: Nitric oxide generation in vitro in the presence of washed platelets (chemiluminescence); type: cell-based, human; conditions: B-NOD 10, 100 or 1000 μM
Experimental: (§1) Venous blood was collected from healthy volunteers who had not previously been taking any drugs for at least two weeks; EDTA was used as an anticoagulant. Washed platelets were prepared as described in Radomski, M. and Moncada, S. (1983) An improved method for washing of human platelets with prostacyclin. Thromb Res 83,383-389, the disclosure of which is incorporated herein by reference, with some modifications. In brief, blood was centrifuged for 10 minutes at 200 g, and the resultant platelet rich plasma was removed. It was recentrifuged at 500 g for 10 minutes. The supernatant was discarded and the pellet was resuspended in Tyrode's solution. Platelet concentration was adjusted to 2×10^8 platelets/ml using a Coulter Counter (Model ZBI, Beckman-Coulter, Fullerton, Calif.). […]
(§2) The supernatant was analyzed for nitric oxide generation by chemiluminescence. […] Chemiluminescence was measured using a reducing system consisting of a ferrocene derivative dissolved in acetonitrile containing 1% perchloric acid, as described in Termin, A., Hoffmann, M. and Bing, R. J. (1992) A simplified method for the determination of nitric oxide in biological solutions. […] Under this condition, NO2 in the injected samples was reduced to NO and detected by chemiluminescence with the NO-analyzer (270 B, Sievers Res. Inc., Boulder, Colo.). […]

[1] = Nitric oxide generation in vivo, plasma NOx after oral administration; parameters: species or system New Zealand White male rabbits; conditions: 80 mg/kg orally, rabbits
Experimental: (§3) New Zealand White male rabbits were given 80 mg/kg of B-NOD. B-NOD was dissolved in 2 ml DMSO, suspended in 8 ml carboxymethylcellulose (0.5%) and administered orally. Blood (1 ml) was drawn from the ear vein using heparinized syringes before and 10 minutes, 30 minutes, 1 hour, 3 hours, 5 hours, 7 hours, and 24 hours following B-NOD administration. Blood samples were centrifuged at 1200 g for 10 minutes and deproteinized by an ultrafiltration device (MPS Micropartition, Millipore Corporation, Bedford, Mass.) and centrifuged again at 2500 g for 90 minutes. Plasma NOx was measured by chemiluminescence as described above.
(§4) Heart rate and systolic and diastolic blood pressures were measured through a 22 gauge by one inch catheter inserted into the ear artery connected to a DIGI-MED™Heart Performance Analyzer 100 (Louisville, Ky.). Determination of blood pressure and heart rate were carried out prior to and 1, 3, 5 hours after B-NOD administration. FIG. 4 illustrates concentrations of NOx in plasma of animals up to 24 hours following administration of B-NOD.

[2] = Blood pressure and heart rate after oral administration; type: in vivo, New Zealand White male rabbits; conditions: 80 mg/kg orally, rabbits; one, three and five hours following administration
Experimental: as §3, §4
Several NO donors are known to cause a fall in blood pressure, particularly when administered intravenously.

[3] = test system: cGMP production in platelets; assay: Platelet cGMP in vitro (acetylation enzyme immunoassay); type: cell-based; conditions: human washed platelets; B-NOD 10, 100 or 1000 μM, 10 minutes
Experimental: Washed platelets were prepared from human blood as described above. 400 μl aliquots were incubated in the presence of B-NOD (10, 100 or 1000 μM) or methanol for 10 minutes. Incubations were terminated by centrifugation at 1000 g and the supernatant was removed. Ice-cold phosphate buffer was added to the pellets, and the pellets were sonicated for 20 seconds. cGMP was measured using an acetylation enzyme immunoassay system (Biotrak, Piscataway, N.J.).

platelet aggregation = assay: Platelet aggregation in vitro, thrombin as agonist (nephelometric aggregometer); type: cell-based, New Zealand rabbits; conditions: rabbit washed platelets; B-NOD 10, 100 or 1000 μM, 10 min preincubation; thrombin 0.04 to 0.14 U/ml
Experimental: Healthy male New Zealand rabbits were anesthetized with pentobarbital (10 mg/kg iv), ketamine (40 mg/kg im), xylazine (10 mg/kg im) and atropine (0.5 mg im). They were […] and mechanically ventilated with 95% oxygen (rate 40 strokes/min, tidal volume 25 ml). The heart was exposed with a median sternotomy, blood (40 ml) was collected from the right ventricle and washed platelets were prepared as described above. Platelet aggregation was monitored by a standard nephelometric technique in which 0.5 ml of platelet suspension (2×10^8 platelets/ml) were incubated at 37° C. and stirred at 1000 rpm in an aggregometer (Model PAP-3, Bio/Data corporation, Horsham, Pa.). The antiaggregant effects of B-NOD (10, 100 or 1000 μM) were tested by incubating platelets with B-NOD at 37.8° C. before the addition of thrombin. Incubation was carried out for 10 min. Thrombin was used as an agonist at relatively low concentrations (0.04 to 0.14 U/ml) to obtain submaximal aggregation in order to evaluate the drug's inhibitory effect.

[4] = Nitric oxide generation in vitro, spontaneous release in the absence of washed platelets (chemiluminescence); conditions: without platelets, B-NOD 10, 100 or 1000 μM
Experimental: as §1, §2

O=C(Oc1cccc(CO[N+](=O)[O-])c1)c1ccccc1O [B-NOD, 3-(nitrooxymethyl)phenyl 2-hydroxybenzoate]
maximal NO release (washed platelets; in the presence of platelets (2×10^8 platelets/ml), 10 minutes): 156 µmol/L | NO production (NOx) (washed platelets; with platelets): increased NO production in a dose-dependent manner | NOx concentration in plasma after 24 hours ([1]; 24 hours): returned to control values | NOx concentration in plasma, course to seven hours ([1]; seven hours following administration): plateaued for seven hours | NOx concentration in plasma ([1]; three hours following administration (increase from 59 before administration)): 115 µmol/L | diastolic pressure [2]: did not affect | heart rate [2]: failed to change | systolic pressure [2]: did not affect | cyclic GMP production in platelets [3]: increased cyclic GMP production in a dose-dependent manner | inhibition of platelet aggregation as compared to the control (platelet aggregation): approximately 25% | NO production (NOx) [4]: increased NO production in a dose-dependent manner | maximal NO release ([4]; 37° C., 10 minutes): 98 µmol/L
